Test results as given in publication PMC3903614, “Factors That Control the Chemistry of the LOV Domain Photocycle” (PLoS ONE, 2014).

Columns and labels:
Assay in all cases: UV-Vis absorbance of bound flavin, dark recovery after photosaturation
Format in all cases: binding
[1] = molecular target: T1, AsLOV2 (A. sativa phot1 LOV2) (Avena sativa, UniProt O49003, C450V/F494C); conditions: 22 °C; relocated active-site cysteine (C494); covalent photoadduct in the light, <10% bleaching; adduct decay time, not an affinity
T1 construct: gene NPH1-1; LOV2 domain with flanking helices, residues 404-560; His6-Gβ1 tag removed by TEV; GEF left on the amino terminus and G on the carboxy terminus; expressed in E. coli BL21(DE3)
Description: (§1) UV-Vis absorbance of bound flavin, dark recovery after photosaturation on AsLOV2 (A. sativa phot1 LOV2)

[2] = molecular target: T2, AsLOV2 (A. sativa phot1 LOV2) (Avena sativa, UniProt O49003, F494C); conditions: 22 °C; bound chromophore; covalent photoadduct with C450 in the light; adduct decay time, not an affinity
T2 construct: gene NPH1-1; LOV2 domain with flanking helices, residues 404-560; His6-Gβ1 tag removed by TEV; GEF left on the amino terminus and G on the carboxy terminus; expressed in E. coli BL21(DE3)
Description: as §1

[3] = molecular target: T3, AsLOV2 (A. sativa phot1 LOV2) (Avena sativa, UniProt O49003, N414A); conditions: 22 °C; bound chromophore; covalent photoadduct with C450 in the light; adduct decay time, not an affinity
T3 construct: gene NPH1-1; LOV2 domain with flanking helices, residues 404-560; His6-Gβ1 tag removed by TEV; GEF left on the amino terminus and G on the carboxy terminus; expressed in E. coli BL21(DE3)
Description: as §1

[4] = molecular target: T4, AsLOV2 (A. sativa phot1 LOV2) (Avena sativa, UniProt O49003, N414D); conditions: 22 °C; bound chromophore; covalent photoadduct with C450 in the light; adduct decay time, not an affinity
T4 construct: gene NPH1-1; LOV2 domain with flanking helices, residues 404-560; His6-Gβ1 tag removed by TEV; GEF left on the amino terminus and G on the carboxy terminus; expressed in E. coli BL21(DE3)
Description: as §1

[5] = molecular target: T5, AsLOV2 (A. sativa phot1 LOV2) (Avena sativa, UniProt O49003, N414G); conditions: 22 °C; bound chromophore; covalent photoadduct with C450 in the light; adduct decay time, not an affinity
T5 construct: gene NPH1-1; LOV2 domain with flanking helices, residues 404-560; His6-Gβ1 tag removed by TEV; GEF left on the amino terminus and G on the carboxy terminus; expressed in E. coli BL21(DE3)
Description: as §1

[6] = molecular target: T6, AsLOV2 (A. sativa phot1 LOV2) (Avena sativa, UniProt O49003, N414L); conditions: 22 °C; bound chromophore; covalent photoadduct with C450 in the light; adduct decay time, not an affinity
T6 construct: gene NPH1-1; LOV2 domain with flanking helices, residues 404-560; His6-Gβ1 tag removed by TEV; GEF left on the amino terminus and G on the carboxy terminus; expressed in E. coli BL21(DE3)
Description: as §1

[7] = molecular target: T7, AsLOV2 (A. sativa phot1 LOV2) (Avena sativa, UniProt O49003, N414Q); conditions: 22 °C; bound chromophore; covalent photoadduct with C450 in the light; adduct decay time, not an affinity
T7 construct: gene NPH1-1; LOV2 domain with flanking helices, residues 404-560; His6-Gβ1 tag removed by TEV; GEF left on the amino terminus and G on the carboxy terminus; expressed in E. coli BL21(DE3)
Description: as §1

[8] = molecular target: T8, AsLOV2 (A. sativa phot1 LOV2) (Avena sativa, UniProt O49003, Q513D); conditions: 22 °C; bound chromophore; covalent photoadduct with C450 in the light; adduct decay time, not an affinity
T8 construct: gene NPH1-1; LOV2 domain with flanking helices, residues 404-560; His6-Gβ1 tag removed by TEV; GEF left on the amino terminus and G on the carboxy terminus; expressed in E. coli BL21(DE3)
Description: as §1

[9] = molecular target: T9, AsLOV2 (A. sativa phot1 LOV2) (Avena sativa, UniProt O49003, Q513L); conditions: 22 °C; bound chromophore; covalent photoadduct with C450 in the light; adduct decay time, not an affinity
T9 construct: gene NPH1-1; LOV2 domain with flanking helices, residues 404-560; His6-Gβ1 tag removed by TEV; GEF left on the amino terminus and G on the carboxy terminus; expressed in E. coli BL21(DE3)
Description: as §1

[10] = molecular target: T10, AsLOV2 (A. sativa phot1 LOV2) (Avena sativa, UniProt O49003); conditions: 22 °C; bound chromophore; covalent cysteinyl-C4a photoadduct with C450 in the light, noncovalent in the dark; adduct decay time, not an affinity; Table 1 gives 80 s from earlier work
T10 construct: gene NPH1-1; LOV2 domain with flanking helices, residues 404-560; His6-Gβ1 tag removed by TEV; GEF left on the amino terminus and G on the carboxy terminus; expressed in E. coli BL21(DE3)
T10 sequence (O49003 entry or part of it): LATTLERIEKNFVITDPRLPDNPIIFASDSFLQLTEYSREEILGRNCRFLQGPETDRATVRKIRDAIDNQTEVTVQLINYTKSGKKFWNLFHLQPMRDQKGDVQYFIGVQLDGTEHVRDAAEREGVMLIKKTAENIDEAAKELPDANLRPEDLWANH

T1 sequence (O49003 entry or part of it C450V/F494C): as the sequence (O49003 entry or part of it) above, with C47V, F91C counted along it
T4 sequence (O49003 entry or part of it N414D): as the sequence (O49003 entry or part of it) above, with N11D counted along it
T9 sequence (O49003 entry or part of it Q513L): as the sequence (O49003 entry or part of it) above, with Q110L counted along it
T3 sequence (O49003 entry or part of it N414A): as the sequence (O49003 entry or part of it) above, with N11A counted along it
T6 sequence (O49003 entry or part of it N414L): as the sequence (O49003 entry or part of it) above, with N11L counted along it
T5 sequence (O49003 entry or part of it N414G): as the sequence (O49003 entry or part of it) above, with N11G counted along it
T7 sequence (O49003 entry or part of it N414Q): as the sequence (O49003 entry or part of it) above, with N11Q counted along it
T8 sequence (O49003 entry or part of it Q513D): as the sequence (O49003 entry or part of it) above, with Q110D counted along it
T2 sequence (O49003 entry or part of it F494C): as the sequence (O49003 entry or part of it) above, with F91C counted along it

Cc1cc2nc3c(=O)[nH]c(=O)nc-3n(C[C@H](O)[C@H](O)[C@H](O)COP(=O)(O)O)c2cc1C [FMN, flavin mononucleotide]
τFMN [1]: 69 s | τFMN [2]: 282 s | τFMN [3]: 1427 s | τFMN [4]: 69 s | τFMN [5]: 615 s | τFMN [6]: 1847 s | τFMN [7]: 280 s | τFMN [8]: 5 s | τFMN [9]: 1793 s | τFMN [10]: 81 ± 2 s
